From ChEMBL document CHEMBL1201862, “PubChem BioAssay data set” (2004)
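Results reflect a 48-hour exposure of cells in 96-well plates to compound at five concentrations. Here, GI50 denotes the concentration required for 50% inhibition of growth.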 Active and inactive are the calls of the source. No stated cut-off is given here; in the data, active = GI50 up to about 1.1 µM and inactive = higher.

Experiments:
Assay in all cases: NCI-60 cell line screen, 48 h
[1] = system: 786-0
[2] = system: SK-OV-3
[3] = system: SK-MEL-2
[4] = system: UACC-62
[5] = system: SK-MEL-5
[6] = system: ACHN
[7] = system: SK-MEL-28
[8] = system: EKVX
[9] = system: TK-10
[10] = system: M14
[11] = system: HOP-62
[12] = system: KM12
[13] = system: LOX IMVI
[14] = system: Malme-3M
[15] = system: SNB-75
[16] = system: HCT-15
[17] = system: SF-268
[18] = system: NCI-H226
[19] = system: SF-295
[20] = system: RXF 393

Compound	GI50 [1]	GI50 [2]	GI50 [3]	GI50 [4]	GI50 [5]	GI50 [6]	GI50 [7]	GI50 [8]	GI50 [9]	GI50 [10]	GI50 [11]	GI50 [12]	GI50 [13]	GI50 [14]	GI50 [15]	GI50 [16]	GI50 [17]	GI50 [18]	GI50 [19]	GI50 [20]
COc1cc(-c2cc(O)c3cc4c(cc3n2)OCO4)cc(OC)c1OC	> 100 µM (inactive)	37.5 µM (inactive)	92.7 µM (inactive)	51.5 µM (inactive)	> 100 µM (inactive)	34.7 µM (inactive)	> 100 µM (inactive)	> 100 µM (inactive)	> 100 µM (inactive)	> 100 µM (inactive)	24.5 µM (inactive)	> 100 µM (inactive)	59.3 µM (inactive)	> 100 µM (inactive)	> 100 µM (inactive)	> 100 µM				
COc1ccc(C(c2ccc(C(C)C)cc(=O)c2O)c2ccc3cccnc3c2O)cc1 (stereo not drawn)	1.63 µM (inactive)	2.3 µM (inactive)	2.02 µM (inactive)	0.735 µM (active)	0.507 µM (active)	0.274 µM (active)		1.27 µM (inactive)		0.933 µM (active)	0.387 µM (active)	1.45 µM (inactive)	0.499 µM (active)	0.398 µM (active)	0.155 µM (active)	0.449 µM	0.399 µM (active)	0.991 µM (active)	0.337 µM (active)	
Cc1ccnn1CCc1ccc(Cl)cc1Cl		65.9 µM (inactive)		8.73 µM (inactive)	19 µM (inactive)	27.9 µM (inactive)	35.4 µM (inactive)	2.31 µM (inactive)	20.8 µM (inactive)	24.4 µM (inactive)	15 µM (inactive)	27 µM (inactive)	33 µM (inactive)	30.1 µM (inactive)	14.5 µM (inactive)	36.5 µM	27 µM (inactive)		18 µM (inactive)	9.91 µM (inactive)
O=C1Nc2ccccc2C(=O)/C1=C/NC(=S)NCCc1ccccc1	> 100 µM (inactive)	> 100 µM (inactive)	> 100 µM (inactive)	> 100 µM (inactive)	> 100 µM (inactive)	> 100 µM (inactive)	> 100 µM (inactive)	> 100 µM (inactive)	22.1 µM (inactive)	> 100 µM (inactive)	> 100 µM (inactive)	55.3 µM (inactive)	> 100 µM (inactive)		> 100 µM (inactive)	> 100 µM		> 100 µM (inactive)	> 100 µM (inactive)	
O=c1cc(N2CCCC2)[nH]c(=O)n1-c1ccccc1	> 100 µM (inactive)		> 100 µM (inactive)		> 100 µM (inactive)	> 100 µM (inactive)	> 100 µM (inactive)	> 100 µM (inactive)	> 100 µM (inactive)	> 100 µM (inactive)	> 100 µM (inactive)	> 100 µM (inactive)	> 100 µM (inactive)	> 100 µM (inactive)	> 100 µM (inactive)	> 100 µM	> 10 µM (inactive)	> 100 µM (inactive)	> 100 µM (inactive)	
COc1cc(OC2OC(CO)C(O)C(O)C2O)c2c(O)c3c(=O)cc(C)oc3cc2c1 (stereo not drawn)		> 100 µM (inactive)	> 100 µM (inactive)	> 100 µM (inactive)	> 100 µM (inactive)	> 100 µM (inactive)	> 100 µM (inactive)	> 100 µM (inactive)	> 100 µM (inactive)	> 100 µM (inactive)	> 100 µM (inactive)	> 100 µM (inactive)	> 100 µM (inactive)	67.1 µM (inactive)	> 100 µM (inactive)	> 100 µM	64.3 µM (inactive)	9.55 µM (inactive)	65.5 µM (inactive)	
CC(=O)OCc1ccc(-c2nc(C#N)c(N)o2)o1	> 10 µM (inactive)	> 10 µM (inactive)		> 10 µM (inactive)	> 10 µM (inactive)	> 10 µM (inactive)	> 10 µM (inactive)	> 10 µM (inactive)	> 10 µM (inactive)	> 10 µM (inactive)	> 10 µM (inactive)	> 10 µM (inactive)	> 10 µM (inactive)	> 10 µM (inactive)	> 10 µM (inactive)	> 10 µM	> 10 µM (inactive)	> 10 µM (inactive)	> 10 µM (inactive)	> 10 µM (inactive)
CCc1ccc(COC(=O)C2=C(C)NC(C)=C(C(=O)OCc3ccc(CC)cn3)C2C2=COCCO2)nc1	23.2 µM (inactive)	16.6 µM (inactive)		13.5 µM (inactive)	13.3 µM (inactive)	25.2 µM (inactive)	18.5 µM (inactive)	12.7 µM (inactive)	33.7 µM (inactive)	16.9 µM (inactive)	17.5 µM (inactive)	30.7 µM (inactive)	15.2 µM (inactive)		14.4 µM (inactive)	22.7 µM	27.4 µM (inactive)	16.2 µM (inactive)	24.9 µM (inactive)	15.4 µM (inactive)
CC(=O)Nc1ccc(C(=O)NN2C(=O)C(Cl)C2c2cccc([N+](=O)[O-])c2)cc1 (stereo not drawn)		> 100 µM (inactive)	> 100 µM (inactive)	> 100 µM (inactive)	> 100 µM (inactive)	> 100 µM (inactive)	> 100 µM (inactive)		> 100 µM (inactive)		> 100 µM (inactive)	> 100 µM (inactive)		> 100 µM (inactive)	> 100 µM (inactive)		> 100 µM (inactive)	> 100 µM (inactive)	> 100 µM (inactive)	
CC12CC3CC(C1)CC(N=[N+]=[N-])(C3)C2	> 100 µM (inactive)	> 100 µM (inactive)	> 100 µM (inactive)	> 100 µM (inactive)	> 100 µM (inactive)	> 100 µM (inactive)	> 100 µM (inactive)	> 100 µM (inactive)	> 100 µM (inactive)	> 100 µM (inactive)	> 100 µM (inactive)	> 100 µM (inactive)	> 100 µM (inactive)	> 100 µM (inactive)	> 100 µM (inactive)			> 100 µM (inactive)	> 100 µM (inactive)	
O=C(C1C(c2ccccc2)N1C(c1ccccc1)c1ccccc1)C1C(c2ccccc2)N1C(c1ccccc1)c1ccccc1 (stereo not drawn)	21.3 µM (inactive)	> 100 µM (inactive)			20.6 µM (inactive)	> 10 µM (inactive)	15.7 µM (inactive)	48.2 µM (inactive)	24.8 µM (inactive)	37.2 µM (inactive)	> 100 µM (inactive)	26.9 µM (inactive)			45.6 µM (inactive)	> 10 µM	24.7 µM (inactive)		75.7 µM (inactive)	
CC(=O)[C@H]1CC[C@@H]2[C@]1(C)CC=C1[C@]23C=C[C@]2(C[C@@H](O)CC[C@]12C)C(C(=O)O)C3C(=O)O (stereo partly drawn)	> 100 µM (inactive)	> 100 µM (inactive)	> 100 µM (inactive)	> 100 µM (inactive)	> 100 µM (inactive)	> 100 µM (inactive)	> 100 µM (inactive)	> 100 µM (inactive)	> 100 µM (inactive)	> 100 µM (inactive)	> 100 µM (inactive)	> 100 µM (inactive)	> 100 µM (inactive)	> 100 µM (inactive)	> 100 µM (inactive)	> 100 µM	> 100 µM (inactive)	> 100 µM (inactive)	> 100 µM (inactive)	
C=CC1(C)CCC2=C(CCC3C(C)(C(=O)OC)CCCC23C)C1=O (stereo not drawn)		18.9 µM (inactive)	17.9 µM (inactive)	18.3 µM (inactive)	16.7 µM (inactive)	17.7 µM (inactive)		18.7 µM (inactive)	19.9 µM (inactive)	20.8 µM (inactive)	16.8 µM (inactive)	17.4 µM (inactive)	18.5 µM (inactive)	17.9 µM (inactive)		20.6 µM	18.7 µM (inactive)	23.8 µM (inactive)	27 µM (inactive)	
Cc1ccc2c(O)cc(-c3sccc3C)nc2n1	0.711 µM (active)	1.45 µM (inactive)		0.9 µM (active)	0.266 µM (active)	1.1 µM (active)		4.43 µM (inactive)	> 24.2 µM (inactive)	0.438 µM (active)	2.1 µM (inactive)	0.719 µM (active)	0.723 µM (active)	0.463 µM (active)	0.726 µM (active)	0.406 µM	1.86 µM (inactive)	1.38 µM (inactive)	0.497 µM (active)	1.31 µM (inactive)
OCCN1c2ccccc2Sc2ccccc21	> 10 µM (inactive)	> 10 µM (inactive)			> 10 µM (inactive)	> 10 µM (inactive)	> 10 µM (inactive)		> 10 µM (inactive)	> 10 µM (inactive)	> 10 µM (inactive)	> 10 µM (inactive)	> 10 µM (inactive)	> 10 µM (inactive)	> 10 µM (inactive)	> 10 µM	> 10 µM (inactive)		> 10 µM (inactive)	
O=C1Cc2c([nH]c3cc(Br)ccc23)-c2ccccc2N1	36 µM (inactive)	19.9 µM (inactive)		12.6 µM (inactive)	16 µM (inactive)	17.5 µM (inactive)	> 100 µM (inactive)		29.3 µM (inactive)	18.5 µM (inactive)	11.7 µM (inactive)	18.6 µM (inactive)	2.9 µM (inactive)	20.8 µM (inactive)	23.8 µM (inactive)	4.21 µM	25.2 µM (inactive)	6.98 µM (inactive)	22.5 µM (inactive)	3.24 µM (inactive)
C=C[C@@](C)(/C=C/c1ccc(O)cc1)CCC=C(C)C [BAKUCHIOL]		16.3 µM (inactive)	22 µM (inactive)		16 µM (inactive)	10.6 µM (inactive)	20 µM (inactive)		17.1 µM (inactive)	19.1 µM (inactive)	19.1 µM (inactive)		18.2 µM (inactive)		14 µM (inactive)	16.8 µM		19 µM (inactive)	20.2 µM (inactive)	
